# From patent publication US6156700A, “3-(1,2-Benzisothiazol- and isoxazol-5-yl)-2,4(1H,3H)-pyrimidinedione or thione and 3-(1,2-benzisothiazol- and isoxazol-5-yl)-4(3H)-pyrimidinone or thione herbicidal agents” (American Cyanmid Company, priority 1998, dated 2000)
# Key:
# [1] = system: SAGPY Arrowhead (Pygmaea); assay: Postemergence weed control, flooded paddy (Table IV); type: in vivo, Sagittaria pygmaea; design: scale not given here
# Procedure, shortened: (§1)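 Rating scale scores taken 3–4 weeks post-treatment; compounds dosed in flood water (~0.0313–0.500 kg/ha) onto weeds 3–5 cm tall and 1.5–2.5 leaf rice under 1.5–3 cm standing water.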
# [2] = system: Morningglory Spp., Ipomoea Spp.; assay: Preemergence herbicidal evaluation, IPOSS; type: in vivo; settings: 0.2500 kg/ha
# Procedure, shortened: (§2)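 Sow seeds in soil-filled cups; spray aqueous acetone compound solution at about 0.0156–0.500 kg/ha; keep on greenhouse benches with routine watering; after four to five weeks, rate visual injury 0–9 compared with control plants.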
# [3] = system: Barnyardgrass, Echinochloa crus-galli; assay: Postemergence herbicidal evaluation, ECHCG; type: in vivo, (L.) Beau
# Procedure, shortened: (§3)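 Greenhouse postemergence test. Seedlings about two weeks old sprayed (40 psi) with compound in 50/50 acetone/water, 0.5% TWEEN 20, at rates near 0.0157–0.500 kg/ha; rated 0–9 by eye at 4–5 weeks.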
# ORYSAT Rice, Tebonnet = assay: Rice tolerance, flooded paddy (Table IV); type: in vivo, Oryza sativa; design: scale not given here; settings: crop tolerance
# Procedure, shortened: as §1
# [4] = system: Wheat, Winter, cv Riband, Triticum aestivum; assay: Postemergence herbicidal evaluation, TRZAWR; type: in vivo
# Procedure, shortened: as §3
# CYPIR Rice Flatsedge = assay: Preemergence weed control, flooded paddy (Table III); type: in vivo, Cyperus iria; design: scale not given here
# Procedure, shortened: (§4)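 Seeds or propagules sown in silt loam under 1.5 to 3 cm standing flood water; compound in 50/50 aqueous/acetone pipetted into the water at about 0.0313 to 0.500 kg/ha active ingredient. Greenhouse-held; herbicidal effect rated on a scale 3-4 weeks after treatment.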
# [5] = system: Morningglory Spp., Ipomoea Spp.; assay: Postemergence herbicidal evaluation, IPOSS; type: in vivo; settings: 0.2500 kg/ha
# Procedure, shortened: as §3
# [6] = system: Sicklepod, Cassia obtusifolia; assay: Preemergence herbicidal evaluation, CASOB; type: in vivo, L.; settings: 0.2500 kg/ha
# Procedure, shortened: as §2
# Galium, Galium aparine = assay: Postemergence herbicidal evaluation, GALAP; type: in vivo
# Procedure, shortened: as §3
# [7] = system: Ragweed, Common, Ambrosia artemisifolia; assay: Preemergence herbicidal evaluation, AMBEL; type: in vivo, L.; settings: 0.2500 kg/ha
# Procedure, shortened: as §2
# [8] = system: SAGPY Arrowhead (Pygmaea); assay: Preemergence weed control, flooded paddy (Table III); type: in vivo, Sagittaria pygmaea; design: scale not given here
# Procedure, shortened: as §4
# [9] = system: Velvetleaf, Abutilon theophrasti; assay: Preemergence herbicidal evaluation, ABUTH; type: in vivo, Medic.; settings: 0.2500 kg/ha
# Procedure, shortened: as §2
# Corn, Field, Zea mays [10] = assay: Preemergence herbicidal evaluation, ZEAMX; type: in vivo, L.; settings: 0.2500 kg/ha
# Procedure, shortened: as §2
# Corn, Field, Zea mays [11] = assay: Postemergence herbicidal evaluation, ZEAMX; type: in vivo, L.
# Procedure, shortened: as §3
# [12] = system: Foxtail, Green, Setaria viridis; assay: Postemergence herbicidal evaluation, SETVI; type: in vivo, (L.) Beau
# Procedure, shortened: as §3
# MOOVA Monochoria [13] = assay: Postemergence weed control, flooded paddy (Table IV); type: in vivo, Monochoria vaginalis; design: scale not given here
# Procedure, shortened: as §1
# [14] = system: Sicklepod, Cassia obtusifolia; assay: Postemergence herbicidal evaluation, CASOB; type: in vivo, L.
# Procedure, shortened: as §3
# [15] = system: Rice, Tebonnet, Oryza sativa; assay: Preemergence herbicidal evaluation, ORYSAT; type: in vivo, (L.) Tebonnet; settings: 0.2500 kg/ha
# Procedure, shortened: as §2
# [16] = system: ECHORC Watergrass (Calif.); assay: Preemergence weed control, flooded paddy (Table III); type: in vivo, Echinochloa oryzoides; design: scale not given here
# Procedure, shortened: as §4
# MOOVA Monochoria [17] = assay: as above; type: in vivo, Monochoria vaginalis; design: scale not given here
# Procedure, shortened: as §4
# [18] = system: Ragweed, Common, Ambrosia artemisifolia; assay: Postemergence herbicidal evaluation, AMBEL; type: in vivo, L.
# Procedure, shortened: as §3
smiles,measurement,setting,value
"COc1ccc(C)cc1-c1nsc2ccc(-n3c(=O)cc(C(F)(F)F)n(C)c3=O)cc12 [Compound 1, 3-[3-(6-Methoxy-m-tolyl)-1,2-benzisothiazol-5-yl]-1-methyl-6-(trifluoromethyl)-2,4(1H,3H)-pyrimidinedione]",herbicidal effect rating,[1]; 0.1250 kg/ha,0.0
same,herbicidal effect rating,[1]; 0.2500 kg/ha,1.0
same,herbicidal effect rating,[1]; 0.5000 kg/ha,3.0
same,herbicide rating (0-9),[2],4.0
same,herbicide rating (0-9),[3]; 0.0630 kg/ha,7.0
same,herbicide rating (0-9),[3]; 0.2500 kg/ha,9.0
same,herbicidal effect rating,"ORYSAT Rice, Tebonnet; 0.1250 kg/ha",4.0
same,herbicidal effect rating,"ORYSAT Rice, Tebonnet; 0.2500 kg/ha",6.0
same,herbicidal effect rating,"ORYSAT Rice, Tebonnet; 0.5000 kg/ha",7.0
same,herbicide rating (0-9),[4]; 0.0630 kg/ha,5.3
same,herbicide rating (0-9),[4]; 0.2500 kg/ha,5.5
same,herbicidal effect rating,CYPIR Rice Flatsedge; 0.0313 kg/ha,9.0
same,herbicidal effect rating,CYPIR Rice Flatsedge; 0.0625 kg/ha,9.0
same,herbicidal effect rating,CYPIR Rice Flatsedge; 0.1250 kg/ha,9.0
same,herbicidal effect rating,CYPIR Rice Flatsedge; 0.2500 kg/ha,9.0
same,herbicidal effect rating,CYPIR Rice Flatsedge; 0.5000 kg/ha,9.0
same,herbicide rating (0-9),[5],9.0
same,herbicide rating (0-9),[6],9.0
same,herbicide rating (0-9),"Galium, Galium aparine; 0.0630 kg/ha",9.0
same,herbicide rating (0-9),"Galium, Galium aparine; 0.2500 kg/ha",9.0
same,herbicide rating (0-9),[7],9.0
same,herbicidal effect rating,[8]; 0.0313 kg/ha,3.3
same,herbicidal effect rating,[8]; 0.0625 kg/ha,5.0
same,herbicidal effect rating,[8]; 0.1250 kg/ha,6.7
same,herbicidal effect rating,[8]; 0.2500 kg/ha,8.3
same,herbicidal effect rating,[8]; 0.5000 kg/ha,8.5
same,herbicide rating (0-9),[9],9.0
same,herbicide rating (0-9),"Corn, Field, Zea mays [10]",6.5
same,herbicide rating (0-9),"Corn, Field, Zea mays [11]; 0.0630 kg/ha",6.0
same,herbicide rating (0-9),"Corn, Field, Zea mays [11]; 0.2500 kg/ha",7.0
same,herbicide rating (0-9),[12]; 0.0630 kg/ha,9.0
same,herbicide rating (0-9),[12]; 0.2500 kg/ha,9.0
same,herbicidal effect rating,MOOVA Monochoria [13]; 0.1250 kg/ha,4.5
same,herbicidal effect rating,MOOVA Monochoria [13]; 0.2500 kg/ha,5.5
same,herbicidal effect rating,MOOVA Monochoria [13]; 0.5000 kg/ha,6.5
same,herbicide rating (0-9),[14]; 0.0630 kg/ha,9.0
same,herbicide rating (0-9),[14]; 0.2500 kg/ha,8.0
same,herbicide rating (0-9),[15],7.5
same,herbicidal effect rating,[16]; 0.0313 kg/ha,9.0
same,herbicidal effect rating,[16]; 0.0625 kg/ha,9.0
same,herbicidal effect rating,[16]; 0.1250 kg/ha,9.0
same,herbicidal effect rating,[16]; 0.2500 kg/ha,9.0
same,herbicidal effect rating,[16]; 0.5000 kg/ha,9.0
same,herbicidal effect rating,MOOVA Monochoria [17]; 0.0313 kg/ha,9.0
same,herbicidal effect rating,MOOVA Monochoria [17]; 0.0625 kg/ha,9.0
same,herbicidal effect rating,MOOVA Monochoria [17]; 0.1250 kg/ha,9.0
same,herbicidal effect rating,MOOVA Monochoria [17]; 0.2500 kg/ha,9.0
same,herbicidal effect rating,MOOVA Monochoria [17]; 0.5000 kg/ha,9.0
same,herbicide rating (0-9),[18]; 0.0630 kg/ha,9.0
same,herbicide rating (0-9),[18]; 0.2500 kg/ha,9.0
